Legend:
[1] = molecular target: T1, Recombinant human TDO comprising amino acids 19-407 (Homo sapiens, UniProt P48775); assay: TDO2 enzymatic assay (NFK quantified by LCMS); format: biochemical; settings: 15 nM enzyme, 200 μM L-tryptophan, pH7, 30 minutes pre-incubation at RT; mean values when measured multiple times; read-out: hTDO activity (IC50 in nM)
T1 construct: Recombinant human TDO comprising amino acids 19-407 with a N-terminal hexahistidine tag; hexahistidine (His6) (N); made in house; host or cells: E. coli
Method: 2) Testing Compounds for TDO Inhibitory Activity in a TDO2 Enzymatic Assay:
Recombinant human TDO comprising amino acids 19-407 with a N-terminal hexahistidine tag expressed in E. coli and purified to homogeneity is incubated at a final concentration of 15 nM in assay buffer consisting of 75 mM phosphate buffer at pH7 supplemented with 100 μM ascorbic acid, 50U/ml Catalase, 0.01% BSA, and 0.01% Tween 20 (protocol modified from Seegers et al, JBS 2014). Example compounds are serially diluted in DMSO, further diluted in phosphate buffer, and added to the reaction mixture at final concentrations ranging from 10 μM to 0.5 nM. The final DMSO concentration is 0.6%. Following a pre-incubation of 30 minutes at RT, the reaction is started by the addition of L-tryptophan at a final concentration of 200 μM in assay buffer. After 30 minutes of incubation at RT, 3 μL of the reaction mixture are transferred to a 384 deep well plate containing 25 μL of deionized water. 100 μl of 200 nM L-Tryptophan-(indole-d5) in cold 100% methanol are added followed by a 10 minutes centrifugation at 3220×g at 4° C. An additional 75 μL of deionized water are then added followed by a 10 minutes centrifugation at 3220×g at 4° C. The product of the reaction N′-Formylkynurenine (NFK) is quantified by LCMS and normalized to the L-Tryptophan-(indole-d5) signal. Samples with 0.6% DMSO (0% effect) and a TDO/IDO inhibitor (100% effect) are used as control samples to set the parameters for the non-linear regression necessary for the determination of the half-maximal inhibitory concentration (IC50) for each compound. For each compound concentration the percentage of activity compared to 0% and 100% effect is calculated as average±STDEV (each concentration measured in duplicate). IC50 values and curves are generated with XLfit software (IDBS) using Dose-Response One Site model 203 (four parameter logistic curve model). The calculated IC50 values may fluctuate depending on the daily assay performance. Fluctuations of this kind are known to those skilled in the art. When compounds are measured multiple times, mean values are given.

[2] = molecular target: T2, Recombinant full-length human IDO1 (Homo sapiens, UniProt P14902); assay: IDO1 enzymatic assay (NFK quantified by LCMS); format: biochemical; settings: 2 nM enzyme, 5 μM L-tryptophan, pH6.5, 30 minutes pre-incubation at RT; mean values when measured multiple times; read-out: hIDO activity (IC50 in nM)
T2 construct: Recombinant full-length human IDO1 with a N-terminal hexahistidine tag; hexahistidine (His6) (N); made in house; host or cells: E. coli
Method: 1) Testing Compounds for IDO Inhibitory Activity in an IDO1 Enzymatic Assay:
Recombinant full-length human IDO1 with a N-terminal hexahistidine tag expressed in E. coli and purified to homogeneity is incubated at a final concentration of 2 nM in assay buffer consisting of 37.5 mM phosphate buffer at pH6.5 supplemented with 10 mM ascorbic acid, 0.45 μM methylene blue, 50U/ml catalase, 0.01% BSA, and 0.01% Tween 20 (protocol modified from Seegers et al, JBS 2014). Example compounds are serially diluted in DMSO, further diluted in phosphate buffer, and added to the enzyme at final concentrations ranging from 10 μM to 0.5 nM. The final DMSO concentration is 0.6%. Following a pre-incubation of 30 minutes at RT, the reaction is started by the addition of L-tryptophan at a final concentration of 5 μM in assay buffer. After 30 minutes of incubation at RT, 3 μL of the 20 μl reaction mixture are transferred to a 384 deep well plate containing 25 μL of deionized water. 100 μl of 200 nM L-Tryptophan-(indole-d5) in cold 100% methanol are added followed by a 10 minutes centrifugation at 3220×g at 4° C. An additional 75 μL of deionized water are then added followed by a 10 minutes centrifugation at 3220×g at 4° C. The product of the reaction N′-Formylkynurenine (NFK) is quantified by LCMS and normalized to the L-Tryptophan-(indole-d5) signal. Samples with 0.6% DMSO (0% effect) and a TDO/IDO inhibitor (100% effect) are used as control samples to set the parameters for the non-linear regression necessary for the determination of the half-maximal inhibitory concentration (IC50) for each compound. For each compound concentration the percentage of activity compared to 0% and 100% effect is calculated as average±STDEV (each concentration measured in duplicate). IC50 values and curves are generated with XLfit software (IDBS) using Dose-Response One Site model 203 (four parameter logistic curve model). The calculated IC50 values may fluctuate depending on the daily assay performance. Fluctuations of this kind are known to those skilled in the art. When compounds are measured multiple times, mean values are given.

T1 sequence (P48775 19-406 limits assumed): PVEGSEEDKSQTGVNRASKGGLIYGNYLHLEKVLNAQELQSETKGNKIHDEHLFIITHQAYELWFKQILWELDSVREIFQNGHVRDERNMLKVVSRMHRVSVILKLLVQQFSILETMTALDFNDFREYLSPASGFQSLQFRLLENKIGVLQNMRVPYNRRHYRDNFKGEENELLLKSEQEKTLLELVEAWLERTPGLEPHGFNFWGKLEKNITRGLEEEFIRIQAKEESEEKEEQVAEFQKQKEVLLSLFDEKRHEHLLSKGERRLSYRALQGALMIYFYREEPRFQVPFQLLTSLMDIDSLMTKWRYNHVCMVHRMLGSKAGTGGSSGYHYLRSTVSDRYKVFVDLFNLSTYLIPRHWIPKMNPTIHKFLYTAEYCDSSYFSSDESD
T2 sequence (P14902 whole entry): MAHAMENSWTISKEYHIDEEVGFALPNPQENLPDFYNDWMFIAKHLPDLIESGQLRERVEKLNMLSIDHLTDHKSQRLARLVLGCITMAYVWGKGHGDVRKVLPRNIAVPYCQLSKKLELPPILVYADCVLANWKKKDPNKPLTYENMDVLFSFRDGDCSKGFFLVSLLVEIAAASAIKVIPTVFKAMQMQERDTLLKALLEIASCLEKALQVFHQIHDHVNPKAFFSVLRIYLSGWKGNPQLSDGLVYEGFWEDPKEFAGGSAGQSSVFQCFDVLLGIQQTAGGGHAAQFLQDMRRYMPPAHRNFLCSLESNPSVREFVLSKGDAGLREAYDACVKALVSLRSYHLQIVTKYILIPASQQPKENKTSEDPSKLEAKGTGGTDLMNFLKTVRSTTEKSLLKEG

SMILES	IC50 [1] [nM]	IC50 [2] [nM]
OC(c1nnc(-c2ccccc2)o1)c1c(C2CC2)sc2cncn12 (racemic) [Example 157, rac-(2-Cyclopropyl-imidazo[5,1-b]thiazol-3-yl)-(5-phenyl-[1,3,4]oxadiazol-2-yl)-methanol]	> 10200	586
OC(c1nc(-c2ccccc2)no1)c1c(C2CC2)sc2cncn12 (racemic) [Example 163, rac-(2-Cyclopropyl-imidazo[5,1-b]thiazol-3-yl)-(3-phenyl-[1,2,4]oxadiazol-5-yl)-methanol]	> 10200	496
Cc1sc2cncn2c1C(O)c1cn(-c2cncc3ccccc23)nn1 (racemic) [Example 61, rac-(1-Isoquinolin-4-yl-1H-[1,2,3]triazol-4-yl)-(2-methyl-imidazo[5,1-b]thiazol-3-yl)-methanol]	> 10200	493
O=[N+]([O-])c1cc(-n2cc(C(O)c3c(C4CC4)sc4cncn34)nn2)ccc1O (racemic) [Example 248, rac-4-{4-[(2-Cyclopropyl-imidazo[5,1-b]thiazol-3-yl)-hydroxy-methyl]-[1,2,3]triazol-1-yl}-2-nitro-phenol]	4710	2.6
CCNC(=O)Nc1ccc(-n2cc(C(O)c3c(C4CC4)sc4cncn34)nn2)cc1OC (racemic) [Example 183, rac-1-(4-{4-[(2-Cyclopropyl-imidazo[5,1-b]thiazol-3-yl)-hydroxy-methyl]-[1,2,3]triazol-1-yl}-2-methoxy-phenyl)-3-ethyl-urea]	> 10200	15.5
OC(c1cn(-c2cnc(OCc3ccccc3)nc2)nn1)c1c(C2CC2)sc2cncn12 (racemic) [Example 85, rac-[1-(2-Benzyloxy-pyrimidin-5-yl)-1H-[1,2,3]triazol-4-yl]-(2-cyclopropyl-imidazo[5,1-b]thiazol-3-yl)-methanol]	> 10200	11.5
COc1cc(F)c(-n2nnc(C(O)c3c(C4CC4)sc4cncn34)c2C)cc1Cl (racemic) [Example 333, rac-[1-(5-Chloro-2-fluoro-4-methoxy-phenyl)-5-methyl-1H-[1,2,3]triazol-4-yl]-(2-cyclopropyl-imidazo[5,1-b]thiazol-3-yl)-methanol]	> 10200	1.46
CCOc1ccc(-n2cc(C(O)c3c(C4CC4)sc4cncn34)nn2)cn1 (racemic) [Example 42, rac-(2-Cyclopropyl-imidazo[5,1-b]thiazol-3-yl)-[1-(6-ethoxy-pyridin-3-yl)-1H-[1,2,3]triazol-4-yl]-methanol]	> 10200	20.2
Oc1ccc(-n2cc(C(O)c3c(C4CC4)sc4cncn34)nn2)c(C(F)(F)F)c1 (racemic) [Example 214, rac-4-{4-[(2-Cyclopropyl-imidazo[5,1-b]thiazol-3-yl)-hydroxy-methyl]-[1,2,3]triazol-1-yl}-3-trifluoromethyl-phenol]	8890	127
CC(C)(O)CCOc1ccc(-n2cc(C(O)c3c([C@@H]4C[C@H]4F)sc4cncn34)nn2)cc1Cl (relative stereo) [Example 308, 4-[2-Chloro-4-(4-{[2-(trans-2-fluoro-cyclopropyl)-imidazo[5,1-b]thiazol-3-yl]-hydroxy-methyl}-[1,2,3]triazol-1-yl)-phenoxy]-2-methyl-butan-2-ol]	> 10200	12.7

Next, values leading:

IC50 [1] [nM]	IC50 [2] [nM]	SMILES
> 10200	205	CCOc1ccc(-n2cc(C(O)c3c(C)sc4cncn34)nn2)cn1 (racemic) [Example 55, rac-[1-(6-Ethoxy-pyridin-3-yl)-1H-[1,2,3]triazol-4-yl]-(2-methyl-imidazo[5,1-b]thiazol-3-yl)-methanol]
> 10200	14.3	CCOc1ccc(-n2cc(C(O)c3c(CC)sc4cncn34)nn2)cn1 (racemic) [Example 46, rac-[1-(6-Ethoxy-pyridin-3-yl)-1H-[1,2,3]triazol-4-yl]-(2-ethyl-imidazo[5,1-b]thiazol-3-yl)-methanol]
> 10200	145	CN(C)C(=O)c1ccc(-n2cc(C(O)c3c(C4CC4)sc4cncn34)nn2)cc1 (racemic) [Example 195, rac-4-{4-[(2-Cyclopropyl-imidazo[5,1-b]thiazol-3-yl)-hydroxy-methyl]-[1,2,3]triazol-1-yl}-N,N-dimethyl-benzamide]
> 10200	154	Cc1sc2cncn2c1C(O)c1cn(-c2ccccc2)nn1 (racemic) [Example 17, rac-(2-Methyl-imidazo[5,1-b]thiazol-3-yl)-(1-phenyl-1H-[1,2,3]triazol-4-yl)-methanol]
> 10200	38.8	COc1ccc(-n2cc(C(O)c3c(C4(C)CC4)sc4cncn34)nn2)cc1 (racemic) [Example 44, rac-[1-(4-Methoxy-phenyl)-1H-[1,2,3]triazol-4-yl]-[2-(1-methyl-cyclopropyl)-imidazo[5,1-b]thiazol-3-yl]-methanol]
> 10200	17.5	COc1ccc(-n2cc(C(O)c3c(C(C)(F)F)sc4cncn34)nn2)cc1 (racemic) [Example 257, rac-[2-(1,1-Difluoro-ethyl)-imidazo[5,1-b]thiazol-3-yl]-[1-(4-methoxy-phenyl)-1H-[1,2,3]triazol-4-yl]-methanol]
> 10200	292	CN(C)CCOc1ccc(-n2cc(C(O)c3c(C4CC4)sc4cncn34)nn2)cc1 (racemic) [Example 204, rac-(2-Cyclopropyl-imidazo[5,1-b]thiazol-3-yl)-{1-[4-(2-dimethylamino-ethoxy)-phenyl]-1H-[1,2,3]triazol-4-yl}-methanol]
> 10200	7.26	C=C(C)c1sc2cncn2c1C(O)c1cn(-c2ccc(OC)cc2)nn1 (racemic) [Example 269, rac-(2-Isopropenyl-imidazo[5,1-b]thiazol-3-yl)-[1-(4-methoxy-phenyl)-1H-[1,2,3]triazol-4-yl]-methanol]
> 10200	8.62	COc1ccc(-n2cc(C(O)c3c(C4CC4)sc4cncn34)nn2)cc1 (racemic) [Example 9, rac-(2-Cyclopropyl-imidazo[5,1-b]thiazol-3-yl)-[1-(4-methoxy-phenyl)-1H-[1,2,3]triazol-4-yl]-methanol]
> 10200	225	CCCC=Cc1sc2cncn2c1C(O)c1cn(-c2ccc(OC)cc2)nn1 (racemic) [Example 271, rac-[1-(4-Methoxy-phenyl)-1H-[1,2,3]triazol-4-yl]-[((E)-2-(pent-1-enyl))-imidazo[5,1-b]thiazol-3-yl]-methanol]
> 10200	21.9	OC(c1cn(-c2ccc(Cl)cc2)nn1)c1c(C2CC2)sc2cncn12 (racemic) [Example 34, rac-[1-(4-Chloro-phenyl)-1H-[1,2,3]triazol-4-yl]-(2-cyclopropyl-imidazo[5,1-b]thiazol-3-yl)-methanol]
